Measured values published in US20020115853A1, “Benzimidazolones and analogues” (priority 1999, published 2002).
“And” between values parts separate entries of the source, which are not always exact repeats. Equal entries are not always repeated.

Legend:
T47D cells = assay: T47D cell proliferation assay (BrdU incorporation); assay type: cell-based; conditions: Homo sapiens, agonist mode, reference progestins, read-out: Estimated EC50, BrdU incorporation, individual studies
Protocol: 1. T47D cell Proliferation Assay
The objective of this assay is the determination of progestational and antiprogestational potency by using a cell proliferation assay in T47D cells. A compound's effect on DNA synthesis in T47D cells is measured.
DMEM:F12 (1:1) (GIBCO, BRL) supplemented with 10% (v/v) fetal bovine serum (not heat-inactivated), 100 U/ml penicillin, […], and 2 mM GlutaMax (GIBCO, BRL). b. Treatment medium: Minimum Essential
Medium (MEM) (#51200-038GIBCO, BRL) phenol red-free supplemented with 0.5% charcoal stripped fetal bovine serum, 100 U/ml penicillin, […] streptomycin, and 2 mM GlutaMax (GIBCO, BRL).
Stock T47 D cells are maintained in growth medium. For BrdU incorporation assay, cells are plated in 96-well plates (Falcon, Becton Dickinson Labware) at 10,000 cells/well in growth medium. […]
At the end of BrdU labeling, the medium is removed and BrdU incorporation is measured using a cell proliferation ELISA kit (#RPN 250, Amersham Life Science) according to manufacturer's instructions. […] Then 25 μl of 1 M sulfuric acid is added to each well to stop color reaction and optical density is read in a plate reader at 450 nm within 5 min.
Square root-transformed data are used for analysis of variance and nonlinear dose response curve fitting for both agonist and antagonist modes. […] EC50 or IC50 values are calculated from the retransformed values. […]

[1] = tested on: rat uterine decidualization; assay: Rat decidualization assay; assay type: in vivo; conditions: ovariectomized rats, p.o., with progesterone 5.6 mg/kg
Protocol: 2. Rat Decidualization Assay
b. Animals (RACUC protocol #5002)
The animals are treated once daily for seven days.
Uteri are removed and trimmed of fat.
S f. Analysis of Results:
Body weight: Mean total animal body weight (default-kg)
Decidual response: [(D-C)/C]×100%

## O=c1[nH]c2ccc(-c3cccc([N+](=O)[O-])c3)cc2o1 [Example 11, 6-(3-Nitro-phenyl)-3H-benzooxazol-2-one]
other
  melting point: 280 to 281 °C

## Cn1c(=O)[nH]c2ccc(-c3cccc([N+](=O)[O-])c3)cc21 [Compound 4, 1-Methyl-6-(3-nitro-phenyl)-1,3-dihydro-benzoimidazol-2-one]
other
  melting point: 264 to 265 °C

## CC(=O)O[C@]1(C(C)=O)CC[C@H]2[C@@H]3C[C@H](C)C4=CC(=O)CC[C@]4(C)[C@H]3CC[C@@]21C [MPA, medroxyprogesterone acetate]
T47D cells
  EC50: 0.019 nM

## CC(C)N1CC(=O)Nc2ccc(-c3cccc(Cl)c3)cc21 [Compound C4, 6-(3-Chloro-phenyl)-4-isopropyl-3,4-dihydro-1H-quinoxalin-2-one]
other
  melting point: 146 to 150 °C

## S=c1[nH]c2ccc(-c3cccc(Cl)c3)cc2n1Cc1ccccc1 [Example 24, 1-Benzyl-6-(3-chlorophenyl)-1,3-dihydro-2H-benzimidazole-2-thione]
other
  melting point: 211 to 212 °C

## CCC1Sc2cc(-c3cccc([N+](=O)[O-])c3)ccc2NC1=O (stereo not drawn) [Compound B2, 2-Ethyl-7-(3-nitro-phenyl)-4H-benzo[1,4]thiazin-3-one]
other
  melting point: 180 °C

## CC(C)N1CC(=O)Nc2ccc(-c3cc(F)cc(C#N)c3)cc21 [Example 20, 6-(3-Cyano-5-fluorophenyl)-4-isopropyl-3,4-dihydro-1H-quinoxalin-2-one]
other
  melting point: 238 to 240 °C

## O=c1[nH]c2ccc(-c3cccc([N+](=O)[O-])c3)cc2[nH]1 [Example 9, 5-(3-Nitro-phenyl)-1,3-dihydro-benzoimidazol-2-one]
other
  melting point: 324 to 325 °C

## CC#C[C@]1(O)CC[C@H]2[C@@H]3CCC4=CC(=O)CCC4=C3[C@@H](c3ccc(N(C)C)cc3)C[C@@]21C [RU486]
[1]
  Estimated IC50, decrease in EC50 progesterone induced decidual response: 0.21 mg/kg and 0.14 mg/kg

## CC1Nc2cc(-c3ccc(Cl)cc3)ccc2NC1=O (stereo not drawn) [Example 27, 6-(4-Chloro-phenyl)-3-methyl-3,4-dihydro-1H-quinoxalin-2-one]
other
  melting point: 228 to 230 °C

## O=[N+]([O-])c1cccc(-c2ccc3[nH]c(=S)n(Cc4ccccc4)c3c2)c1 [Example 25, 1-Benzyl-6-(3-nitrophenyl)-1,3-dihydro-2H-benzimidazole-2-thione]
other
  melting point: 244 to 245 °C

## CC(C)N1CC(=O)Nc2ccc(-c3ccc(F)c(Cl)c3)cc21 [Compound C5, 6-(3-Chloro-4-fluoro-phenyl)-4-isopropyl-3,4-dihydro-1H-quinoxalin-2-one]
other
  melting point: 208 to 213 °C

## O=c1[nH]c2ccc(-c3cccc(Cl)c3)cc2n1Cc1ccccc1 [Compound 1, 1-Benzyl-6-(3-chloro-phenyl)-1,3-dihydro-benzoimidazol-2-one]
other
  melting point: 168 to 169 °C

## O=c1[nH]c2ccc(-c3cccc(Cl)c3)cc2s1 [Example 13, 6-(3-Chloro-phenyl)-3H-benzothiazol-2-one]
other
  melting point: 195 to 196 °C

## O=c1[nH]c2ccc(-c3cccc([N+](=O)[O-])c3)cc2s1 [Example 12, 6-(3-Nitro-phenyl)-3H-benzothiazol-2-one]
other
  melting point: 276 to 277 °C

## O=C1CN(Cc2ccccc2)c2cc(-c3cccc(Cl)c3)ccc2N1 [Example 28, 4-Benzyl-6-(3-chlorophenyl)-3,4-dihydroquinoxalin-2 (1H)-one]
other
  melting point: 182 to 185 °C

## CN1CC(=O)Nc2ccc(-c3cccc([N+](=O)[O-])c3)cc21 [Example 26, 6-(3-Nitro-phenyl)-4-methyl-3,4-dihydro-1H-quinoxalin-2-one]
other
  melting point: 237 to 243 °C

## O=c1[nH]c2ccc(-c3cccc([N+](=O)[O-])c3)cc2n1Cc1ccccc1 [Compound 2, 1-Benzyl-6-(3-nitro-phenyl)-1,3-dihydro-benzoimidazol-2-one]
other
  melting point: 202 to 203 °C

## Cn1c(=O)[nH]c2ccc(-c3cccc(Cl)c3)cc21 [Compound 3, 6-(3-chloro-phenyl)-1-methyl-1,3-dihydro-benzoimidazol-2-one]
other
  melting point: 219 to 220 °C

## O=C1CSc2cc(-c3cccc([N+](=O)[O-])c3)ccc2N1 [Compound B1, 7-(3-Nitro-phenyl)-4H-benzo[1,4]thiazin-3-one]
other
  melting point: 290 to 292 °C

## CC(C)OC(=O)N1CC(=S)Nc2ccc(-c3cccc(Cl)c3)cc21 [Example 30, Isopropyl 7-(3-chlorophenyl)-3-thioxo-3,4-dihydroquinoxaline-1(2H)-carboxylate]
other
  melting point: 208 to 212 °C
